The test system of series [1] is HaCaT cells. The experiment in a line: m6A methylation level of drug-treated HaCaT keratinocytes by nanopore sequencing. The class given is cell-based, human. As to conditions: 50 nM drug, 24 hours, vs blank control group. The protocol: 1*10^8 HaCaT cells were seeded in culture dishes, into which 50 nM drugs (including sorafenib, capecitabine, docetaxel, and osimertinib) were added, respectively. The cells were cultured in an incubator containing 5% CO2 at 37°C for 24 hours and washed with PBS after culture media were removed. Centrifugation was performed, the supernatant was discarded, and then, 400 µL of an RLT cell lysis buffer (QIAGEN, Cat.#79216) was added. A portion of samples were selected, into which 400 µL of 70% ethanol was added. The mixture was evenly stirred and then transferred to an RNeasy mini column, and RNA was extracted using an RNeasy mini kit (QIAGEN, Cat.#74104). 2 µL of an RNA sample was selected and dissolved in 98 µL of a 10 mM Tris-HCl buffer solution, and the absorbance at 260 nm was measured using a Nanodrop (Thermo Fisher Scientific) to determine the RNA concentration.
40 µg of an RNA sample was selected for enrichment of mRNA (PolyA+RNA) using an NEBNext Poly(A) mRNA magnetic isolation module (NEB, Cat.#E7490), and then, a 3' end of the above enriched mRNA (PolyA+RNA) molecule was ligated with reverse transcription adapter RTA using a direct RNA sequencing kit (Oxford Nanopore Technologies, Cat.#SQK-RNA002). A reverse transcription reaction was performed with the mRNA (PolyA+RNA) molecule as a template to synthesize a complementary strand, a terminal end of the reverse transcription adapter RTA was ligated with a sequencing adapter (RNA adapter) to form a final sequencing library, and quantitative detection was performed using a Qubit™ dsDNA HS assay kit (Invitrogen, Cat.#LOT2133187).
After quality inspection of the library, the prepared sequencing library was loaded onto a PromethION flow cell chip (Oxford Nanopore Technologies, Cat.#FLO-MIN106D), and placed in a PromethION sequencer (Oxford Nanopore Technologies) for sequencing by selecting a matched sequencing mode. Basecalling was performed on sequencing data through guppy, and m6A methylation analysis was performed on original fast5 data.

Series [2] deals with HaCaT cells. Description: m6A methylation level of human keratinocytes (EpiQuik m6A RNA methylation quantification kit). As to conditions: 50 nM drug alone, 24 hours, relative to control group 1 (DMSO). The class given is cell-based. The protocol: HaCaT cells were cultured in DMEM culture medium containing 10% fetal bovine serum, 100 U/mL penicillin, and 100 µg/mL streptomycin. Culture dishes were placed in an incubator containing 5% CO2 for culture at 37°C for 24 hours. An equal volume of DMSO was added in control group 1, 50 nM sorafenib, capecitabine, docetaxel, and osimertinib were respectively added in control groups A, B, C, and D, and 400 nM test compounds or nicotinamide were respectively added in sample groups A1, A2, B1, B2, C1, C2, D1, and D2 after the addition of 50 nM corresponding compounds. The cells were continuously cultured for 24 hours, washed with PBS, and then collected by high-speed centrifugation. Total RNA was extracted using Trizol reagent (Sigma Aldrich), and RNA m6A methylation of a sample was quantitatively detected using an EpiQuik m6A RNA methylation quantification kit. The concentrations of positive control samples for a standard curve were 0.01 ng/µl, 0.02 ng/µl, 0.05 ng/µl, 0.1 ng/µl, 0.2 ng/µl, and 0.5 ng/µl. The absorbance at 450 nm was read using a microplate reader (Tecan GENios). A quantitative calculation formula for m6A is as follows: m6A(ng) = (absorbanceofsamplewell−absorbanceofbackroundwell)/slope of standard curve [formula] m6A(%) = m6A(ng)/RNA amount of sample(ng)*100%. [formula]

Series [3] deals with chemotherapeutic drug-induced mouse model with hand-foot syndrome. The experiment in a line: chemotherapeutic drug-induced mouse model with hand-foot syndrome. The class given is in vivo, ICR mice. The note with it: for swelling of the hind limb toes of the mice / epidermal layer and the stratum corneum in the skin tissues of the hind limb toes: modeling drug oral; for swelling of the hind limb toes of the mice: 14 days: capecitabine 200 mg/kg, docetaxel 25 mg/kg; for epidermal layer and the stratum corneum in the skin tissues of the hind limb toes: 14 days: capecitabine, docetaxel; for skin of the hind limb toes of the mice (appearance): modeling for 14 days: capecitabine 200 mg/kg, docetaxel 25 mg/kg oral gavage once daily. An excerpt: After adaptive feeding for 7 days, SPF-grade ICR mice (male, 5-6 weeks old, with a body weight of approximately 35 g) were randomly divided into groups, including a blank control group (6 mice), a capecitabine modeling group (6 mice), a docetaxel modeling group (6 mice), a capecitabine + compound of formula (I) group (6 mice), a docetaxel + compound of formula (I) group (6 mice), a capecitabine + nicotinamide group (6 mice), and a docetaxel + nicotinamide group (6 mice). The groups were respectively administered corresponding modeling drugs by oral gavage (capecitabine at 200 mg/kg and docetaxel at 25 mg/kg) once daily; and the blank control group was administered an equivalent volume of normal saline. After administration with the chemotherapeutic drugs for 2 weeks, the ointments containing the compound of formula (I) (at a compound content of 3%) used in Example 10 were respectively applied topically in the groups, or nicotinamide was orally administered (100 mg/kg) once daily continuously for 16 days.
Measurement of the degree of swelling of toes: The degree of swelling of hind limb toes of the mice was measured using a toe swelling tester (KW-7C, Nanjing Calvin Biotechnology Co., Ltd.) before administration with the modeling drugs, after administration with the modeling drugs for 2 weeks, and before sacrifice, respectively. Before measurement, ankle joints of hind feet of the mice were marked at same positions before administration, after administration for 2 weeks, and before sacrifice. During measurement, water was properly located at the same level as the marked positions, and numerical values were recorded after becoming stable.
Pathological staining of skin tissues: Skin tissue samples were selected from hind limb toes of the mice and placed in 4% paraformaldehyde for fixation at room temperature for 4 hours. Then, the tissues were taken out and rinsed with running water for several hours. The samples were subjected to dehydration treatment with 70%, 80%, and 90% ethanol solutions, followed by treatment with a mixed solution of equal amounts of absolute alcohol and xylene for 15 minutes, and then permeabilized twice with a xylene solution for 15 minutes each time until the samples became transparent. The samples were placed in a mixture of half xylene and half paraffin for soaking for 15 minutes, and then, paraffin I and paraffin II were added for wax penetration for one hour, respectively. After embedding with paraffin, the samples were sectioned, baked, dewaxed, and hydrated. Then, the hydrated sections were placed in a hematoxylin solution (ZSGB-BIO, article No. 23041001) for staining for 3 minutes, and a differentiation solution of hydrochloric acid in ethanol was added for differentiation for 15 seconds. After rinsing with water, a Scott bluing solution (Servicebio, article No. 20230801) was added for bluing for 15 seconds. After rinsing with running water, the sections were stained with an eosin solution (Solarbio, article No. 33535) for 3 minutes, rinsed with running water, dehydrated, permeabilized, sealed, and inspected under a microscope.
Immunohistochemical staining: After baking, dewaxing, and hydration, paraffin sections of skin tissues of hind limb toes of the mice were subjected to antigen retrieval using a 0.2 M citric acid buffer solution (containing 1.534 g of citric acid, 3.1 g of sodium citrate, and 100 mL of distilled water, pH 4.7). Endogenous […] was removed using 3% hydrogen peroxide (Shandong Annjet High-Tech Disinfection Technology Co., Ltd., article No. 20290902), and the sections were incubated at room temperature for 10 minutes and then fully rinsed with a PBS buffer solution (containing 8 g of NaCl, 0.2 g of KCl, 1.44 g of Na2HPO4, and 1 M HCl, pH 7.4). The sections were permeabilized with 0.5% Triton-X-100 (AmyJet Scientific, article No. A-CSH436-100 mL), respectively permeabilized with mouse anti-IL-1β and rabbit IL-8 for 10 minutes, and not permeabilized with rabbit anti-IL-6. […]

A short description of series [4]: competitive suspension tests of crystal forms (XRPD). The class given is physicochemical. The note with it: isopropanol, isopropyl acetate, and acetonitrile; 5°C, 25°C, 50°C, 3 days. On the procedure: A 2θ scanning angle of the sample was 3°-40°, a scanning step size was 0.02°, and a scanning time per step was 0.12 s/step. An optical tube voltage and a current were 40 kV and 40 mA, respectively. During sample preparation, an appropriate amount of the sample was placed on a sample tray and flattened with a tool such as a glass slide to ensure a smooth and even surface.
Resulting suspensions were suspended at 5°C, 25°C, and 50°C for 3 days, respectively. The resulting suspensions were centrifuged, and solid portions were detected by XRPD.

As to `CCCCCOC(=O)Nc1nc(=O)n([C@@H]2O[C@H](C)[C@@H](O)[C@H]2O)cc1F` [Capecitabine, capecitabine], the “m6A methylation levels of HaCaT cells higher than that of the control group” value in the series on HaCaT cells [1] was 6.01 fold. For the same compound, in the series with HaCaT cells [2], the m6A fold change was found to be 6.7 fold. The “cytokine IL-8 in the skin tissues of the hind limb toes of the mice” value in series [3] (capecitabine oral 14 days, vs normal control group, p<0.05) was “significantly increased”. Besides, the “swelling of the hind limb toes of the mice” value in series [3] is on record as “swelling of the hind limb toes of the mice was caused”. Moreover, in series [3] (vs normal control group), the “epidermal layer and the stratum corneum in the skin tissues of the hind limb toes” value was “significantly thickened”; the “skin of the hind limb toes of the mice (appearance)” value was “obvious erythema, rhagades, and blisters”.
For the compound `CC(=O)O[C@@]12CO[C@@H]1C[C@H](O)[C@@]1(C)C(=O)[C@H](O)C3=C(C)[C@@H](OC(=O)[C@H](O)[C@@H](NC(=O)OC(C)(C)C)c4ccccc4)C[C@@](O)([C@@H](OC(=O)c4ccccc4)[C@H]21)C3(C)C` [Docetaxel, docetaxel], in the series with HaCaT cells [1], the “m6A methylation levels of HaCaT cells higher than that of the control group” value was 3.97 fold. Further, in the series with HaCaT cells [2], the m6A fold change was 5.6 fold. The “cytokine IL-6 in the skin tissues of the hind limb toes of the mice” value in series [3] (docetaxel oral 14 days, vs normal control group, p<0.05) is “significantly increased”. The “swelling of the hind limb toes of the mice” value in series [3] is listed as “swelling of the hind limb toes of the mice was caused”. For the same compound, in series [3] (vs normal control group), the “epidermal layer and the stratum corneum in the skin tissues of the hind limb toes” value is on record as “significantly thickened”; the “skin of the hind limb toes of the mice (appearance)” value is “obvious erythema, rhagades, and blisters”.
On to `NC(=O)[C@H]1CCCc2c1[nH]c1ccc(Cl)cc21` [Crystal form B, (S)-6-chloro-2,3,4,9-tetrahydro-1H-carbazole-carboxamide], for which, in series [4], the “crystal form after competitive suspension slurrying” value is “converted into the crystal form F”.

The values are drawn from patent publication EP4782431A1 (Suzhou Merna Therapeutics Co. Ltd, priority 2023, dated 2025).
